One compound from patent US20190060249A1 (priority 2017, published 2019) can be followed below.

Assay [1] deals with Human salivary cells. Put plainly: Salisphere formation assay, human. The assay is classed as cell-based. To be noted: 25 μM Alda-341; cells from normal salivary gland tissue of head and neck cancer patients. The procedure:
Salisphere formation assay: Cells isolated from mouse submandibular glands (SMG) were FACS sorted using cell surface markers EpCAM and CD24 as previously described and seeded on matrigel (BD Biosciences, BD356235). Cells were grown in DMEM/F12+GlutaMax (Gibco, 10565-018) media containing 10% FBS, 1× anti-anti, 1% N2 supplement (Gibco), 20 ng/mL […] (Sigma-Aldrich), 20 ng/mL fibroblast growth factor-2 (Sigma-Aldrich), 10 μg/mL insulin (Sigma-Aldrich), 1 μM dexamethasone (Sigma-Aldrich), 10 μM […] (Stem Cell Technologies). Spheres were passaged every 7 days by dissociating into single cells by incubating in 1 mg/mL dispase (BD Biosciences) for 20 minutes and 0.25% trypsin-EDTA for 20 minutes. Spheres were grown for 7 days and imaged with a BZ-X710 Keyence microscope using the z-stack function. Images were stitched together into a single image and analyzed using ImageJ (NIH) to quantify sphere number and area. Experiments were repeated at least 3 independent times.
Sphere number per well quantified by Image J (NIH). 4 replicates per group.
Salivary gland tissue dissociation: Mouse and human salivary gland cells were isolated as previously described in, Szlavik, V., Szabo, B., Vicsek, T., Barabas, J., Bogdan, S., Gresz, V., Varga, G., O'Connell, B., and Vag, J. (2008) Differentiation of primary human submandibular gland cells cultured on basement membrane extract. […]

The target of assay [2] is T1, ALDH3A1 (Homo sapiens, UniProt P30838).
T1 sequence (P30838 1-453): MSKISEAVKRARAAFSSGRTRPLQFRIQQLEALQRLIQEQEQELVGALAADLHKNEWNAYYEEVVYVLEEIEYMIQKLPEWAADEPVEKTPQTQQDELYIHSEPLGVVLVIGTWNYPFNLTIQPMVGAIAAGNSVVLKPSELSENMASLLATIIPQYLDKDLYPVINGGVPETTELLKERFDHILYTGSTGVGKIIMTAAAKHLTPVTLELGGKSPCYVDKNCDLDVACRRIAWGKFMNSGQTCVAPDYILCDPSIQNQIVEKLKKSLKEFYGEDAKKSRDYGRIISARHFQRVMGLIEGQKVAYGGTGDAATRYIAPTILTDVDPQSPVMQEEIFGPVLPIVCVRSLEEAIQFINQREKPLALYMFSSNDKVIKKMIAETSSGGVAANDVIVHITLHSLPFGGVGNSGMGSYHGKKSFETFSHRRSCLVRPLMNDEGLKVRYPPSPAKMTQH
Nature of the assay: ALDH fluorescence-coupled enzymatic assay, all-trans-retinal substrate, ALDH3A1. The assay is classed as biochemical. The procedure: (§1) Assay conditions were modified from the original enzyme assay protocol above using 50 mM NaPPi buffer (pH 7.4), 2.5 mM NAD^+, 10 mM acetaldehyde or all-trans-retinal substrate with the addition of 1 U/mL diaphorase and 0.1 mM resazurin for the secondary reaction. Measurements were collected in triplicate at 25° C.

In assay [3] the test system is mouse primary salivary sphere lysate. Nature of the assay: ALDH fluorescence-coupled enzymatic assay in salivary sphere lysate. The assay is classed as biochemical. As to conditions: 10 mM acetaldehyde, 100 μM Alda-341. The procedure: as §1
All measurements were collected in triplicate, and error bars represent SEM. *=p<0.05; ***=p<0.001 (Student's t-test).

Assay [4] deals with T2, ALDH1A1 (Homo sapiens, UniProt P00352).
T2 sequence (P00352 1-501): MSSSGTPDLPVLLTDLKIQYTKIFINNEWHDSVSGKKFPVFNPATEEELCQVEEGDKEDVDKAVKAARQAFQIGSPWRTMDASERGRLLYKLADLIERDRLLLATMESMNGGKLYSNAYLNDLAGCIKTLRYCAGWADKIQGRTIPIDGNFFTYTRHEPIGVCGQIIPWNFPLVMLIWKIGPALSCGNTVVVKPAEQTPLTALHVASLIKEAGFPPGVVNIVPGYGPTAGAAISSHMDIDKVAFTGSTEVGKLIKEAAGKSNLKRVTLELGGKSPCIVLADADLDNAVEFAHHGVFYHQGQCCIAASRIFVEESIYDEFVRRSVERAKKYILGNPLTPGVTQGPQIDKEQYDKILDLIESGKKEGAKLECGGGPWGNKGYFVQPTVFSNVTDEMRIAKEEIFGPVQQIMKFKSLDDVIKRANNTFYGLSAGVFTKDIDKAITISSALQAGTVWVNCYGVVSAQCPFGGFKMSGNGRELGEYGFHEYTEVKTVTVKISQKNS
Nature of the assay: ALDH fluorescence-coupled enzymatic assay, all-trans-retinal substrate, ALDH1A1. The assay is classed as biochemical. The procedure: as §1

Each structure is given as a SMILES string.

As to `C=C(C)[C@H]1CC=C(C)CC1` [Alda-341, D-limonene], in assay [1], the “more salispheres than untreated cells” value is reported as “about 30%”. Further, the “catalytic activity of all trans-retinal in ALDH3A1” value in assay [2] is reported as “did not increase”. Moreover, in assay [3] (400 μg/mL Aldh3a1(−/−) salivary sphere lysate), the “enzymatic activity of the lysate from Aldh3a1(−/−) mice” value is reported as “did not increase”. In addition, in assay [3] (400 μg/mL C57BL/6 WT salivary sphere lysate), the “increase of enzymatic activity of WT lysate” value is reported as “approximately 30%”. Also, in assay [4], the “catalytic activity of all trans-retinal in ALDH1A1” value is “did not increase”.
